Measured values: patent US20130178835A1, “IDENTIFYING SYNTHETIC LIGANDS THAT BIND T-CELLS FROM PATIENTS HAVING AN AUTOIMMUNE DISEASE” (The Board of Regents of the University of Texas System, priority 2009, published 2013)
Entries after “also recorded” stand apart in the source; their conditions may differ. Non-standard residues stand in square brackets, D forms with d. Residues, ends and D or L forms follow the SMILES beside them. Nrpe = C[C@@H](NCC(=O)O)c1ccccc1; NFurfurylGly = O=C(O)CNCc1ccco1; Nleu = CC(C)CNCC(=O)O; Nlys = NCCCCNCC(=O)O

Assays:
[1] = tested on: Vα2.3/Vβ8.2 MBP Acl-11 TCR transgenic T cells; assay: Flow cytometry binding assay (periodate cross-linking, streptavidin-APC MFI); design: species or system mouse; conditions: biotin-DOPA-AG12A 1-500 μM, cross-linked with periodate; MFI fitted with Graphpad Prism; estimated
Protocol: Following isolation of CD4+ T cells from TCR transgenic mice and WT controls, cells were washed and resuspended in 0.1% PBS/BSA (FACS buffer). The cells were incubated with increasing concentrations (1 μM, 10 μM, 100 μM, 250 μM, or 500 μM) of either the biotin-DOPA-AG12A peptoid or a biotin-DOPA-control peptoid and incubated for 30 min at 37° C. 5 mM sodium periodate was added to the cells briefly to cross-link the peptoid to the target receptor. This reaction was quenched with DTT and the cells were washed twice with 0.1% PBS/BSA. Fc block (BD Biosciences) was added to the cells for 15 min on ice in order to reduce non-specific binding to Fc receptors. The cells were stained with 1 μg anti CD4-PerCp Cy5.5 antibody and 0.02 μg streptavidin-APC antibody (BD Biosciences) for 15 minutes on ice. The staining was followed by 2 washes with 0.1% PBS/BSA and the cells were run on a FACS Calibur flow cytometer to assess peptoid binding. The data were analyzed using Flowjo software (Treestar) to determine the mean fluorescent intensity and are shown as histograms. The mean fluorescent intensities (MFI) were plotted using Graphpad Prism software to determine an estimated Kd value and are depicted as a line graph.

[2] = tested on: CD4+ T cells from MBP Acl-11 TCR transgenic mice; assay: Binding of quantum dot-labeled T cells to peptoid resynthesized on beads; design: species or system mouse; conditions: Tentagel beads, red quantum dot-labeled T cells
Text: Approximately 300,000 beads were swelled in DMF, washed with PBS, and equilibrated in complete RPMI 1640 media containing 3% BSA. CD4+ T cells isolated from either EAE or wild-type mice were resuspended in RPMI and labeled using quantum dots (Invitrogen) according to manufacturer's instructions. CD4+ T cells from EAE mice were labeled with Qtracker 655 (red) and CD4+ T cells from wild-type mice were labeled with Qtracker 565 (green). Labeled cells were mixed in a 1:1 ratio with a total of approximately 10×10^6 of each cell type. The cells were then incubated with the peptoid bead library overnight in a 37° C. incubator with 5% CO2 and gentle shaking. The beads were gently washed 2 times with RPMI media and were then visualized under a fluorescent microscope (Olympus BX-51) with excitation 340-380 nm using a DAPI filter (100×total magnification). Beads binding only to red labeled cells were selected manually using a 20 μl pipette. The “hit” beads were then washed, boiled with 1% SDS for 30 minutes and subjected to automated Edman sequencing.
(§1) To determine whether AG12A was binding to the autoreactive TCR, the inventors took advantage of the existence of transgenic mice, in which the vast majority of CD4+ T cells express the MBP Acl-11 specific TCR (Vα2.3/Vβ8.2 TCR) (Goverman et al., 1993). CD4+ T cells were isolated from these mice and tested for binding to AG12A. […]

[3] = tested on: CD4+ T cells from B10.PL wild-type control mice; assay: as above; design: species or system mouse; conditions: Tentagel beads, red quantum dot-labeled T cells
Protocol: Approximately 300,000 beads were swelled in DMF, washed with PBS, and equilibrated in complete RPMI 1640 media containing 3% BSA. CD4+ T cells isolated from either EAE or wild-type mice were resuspended in RPMI and labeled using quantum dots (Invitrogen) according to manufacturer's instructions. […] Labeled cells were mixed in a 1:1 ratio with a total of approximately 10×10^6 of each cell type. The cells were then incubated with the peptoid bead library overnight in a 37° C. incubator with 5% CO2 and gentle shaking. The beads were gently washed 2 times with RPMI media and were then visualized under a fluorescent microscope (Olympus BX-51) with excitation 340-380 nm using a DAPI filter (100×total magnification). Beads binding only to red labeled cells were selected manually using a 20 μl pipette. The “hit” beads were then washed, boiled with 1% SDS for 30 minutes and subjected to automated Edman sequencing.
as §1, with “AG12A. This was done in several ways. First, AG12A was resynthesized on beads, as was a control peptoid not selected as a T cell ligand (FIG. 6).” for “AG12A.”

[4] = tested on: B cells from B10.PL wild-type mice; assay: CFSE proliferation assay; type: cell-based, mouse; conditions: 1-500 μM peptoid, stimulated with LPS
Protocol: (§2) Following CD4+ T cell isolation, Vα2.3Vβ8.2 TCR transgenic T cells, B cells, or MOG-35-55 TCR transgenic T cells were labeled with CFSE (molecular probes) according to manufacturer's instructions. Briefly, cells were resuspended at a concentration of 1×10^6 per ml in PBS and incubated with 0.5 μM CFSE at 37° C. for 10 min. The staining was quenched with addition of 5 volumes of culture media containing 10% FBS. The cells were centrifuged, washed, and resuspended in complete RPMI 1640 media. The cells were then plated at 1×10^6 per ml. and incubated with increasing concentrations of either AG12A peptoid or a control peptoid (1 μM, 10 μM, 20 μM, 40 μM, 60 μM, 80 μM, 100 μM, 200 μM, or 500 μM) for 30 min at 37° C. Antigen presenting cells were isolated from spleens of WT B10.PL mice and 10 μg/ml of MBP Acl-11, MOG 35-55, or LPS were then added to the culture to stimulate the cells. The cells were left in culture for 5 days, stained with an anti-CD4-PerCp antibody (BD Biosciences), and run on the FACS Calibur flow cytometer to assess cell division. The data were analyzed using Flowjo software (Treestar) proliferation platform to determine percentage of dividing cells. The percent division was graphed using Graphpad Prism software and depicted as a line graph.

[5] = tested on: CD4+ MBP Acl-11 specific murine TCR transgenic T cells; assay: CFSE proliferation assay; type: cell-based, mouse; conditions: 1-500 μM peptoid, MBP Acl-11 peptide 10 μg/ml and antigen presenting cells, 5 days
Protocol: as §2

[6] = tested on: CD4+ T cells from MOG 35-55 TCR transgenic mice; assay: CFSE proliferation assay; type: cell-based, mouse; conditions: 1-500 μM peptoid, stimulated with MOG 35-55 peptide and antigen presenting cells
Protocol: as §2

## CC(C)CN(CC(=O)N(CCCCN)CC(=O)N(CC(=O)N(CC(=O)N(CCCCN)CC(=O)N(CC(=O)N(CCCCN)CC(=O)N(CCCCN)CC(N)=O)CC(C)C)[C@H](C)c1ccccc1)Cc1ccco1)C(=O)CNCCCCN [AG12A] (H-[Nlys][Nleu][Nlys][NFurfurylGly][Nrpe][Nlys][Nleu][Nlys][Nlys]-NH2)
[1]
  Kd: ~40 µM
[2]
  binding of T cells to peptoid displayed on beads: bound; also recorded: bind to AG12A peptoid beads
[3]
  binding of T cells to peptoid displayed on beads: did not; also recorded: do not bind
[4]
  inhibition of proliferation (percent division): nor did AG12A inhibit
[5]
  inhibition of proliferation (percent division): inhibits proliferation
[6]
  inhibition of proliferation (percent division): did not inhibit
